These results are taken from patent US11426397B2, “Piperidinyl- and piperazinyl-substituted heteroaromatic carboxamides as modulators of GPR6” (TAKEDA PHARMACEUTICAL COMPANY LIMITED, priority 2017, dated 2022).

Some results are limits rather than exact numbers.

T1 sequence (P46095 whole entry): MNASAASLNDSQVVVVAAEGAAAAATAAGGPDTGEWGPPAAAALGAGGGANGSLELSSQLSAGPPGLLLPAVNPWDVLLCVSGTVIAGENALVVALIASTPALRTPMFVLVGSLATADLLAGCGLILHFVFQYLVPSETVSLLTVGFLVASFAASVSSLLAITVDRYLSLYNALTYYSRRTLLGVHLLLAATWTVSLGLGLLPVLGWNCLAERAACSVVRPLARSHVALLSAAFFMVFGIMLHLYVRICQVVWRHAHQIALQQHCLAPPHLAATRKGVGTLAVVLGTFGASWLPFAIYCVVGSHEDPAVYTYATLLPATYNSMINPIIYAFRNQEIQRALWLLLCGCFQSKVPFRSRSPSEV

This experiment concerns the target T1, GPR6 receptor expressed in CHO-K1 cells (Homo sapiens, UniProt P46095).
T1 construct: expressed in transfected cells
The experiment can be described thus: In vitro inhibition of cAMP (EC50), cell-based HTRF cAMP assay. The following applies: inhibition of constitutive cAMP activity of GPR6 in CHO-K1 cells. The procedure: I. In Vitro Inhibition of cAMP (EC50)
This cell based assay measures the ability of test compounds to inhibit the constitutive cAMP activity of GPR6 receptor expressed in CHO-K1 cells. CHO cells are stably expressed with GPR6 receptor, whose expression is controlled by a tetracycline inducible element. The cells were cultured in medium containing F12K, 10% FBS, 1% Penn/Strep, 200 μg/mL Hygromycin. GPR6 receptor expression is induced for 20 hours with 2 μg/mL doxycycline (Sigma D9891) in growth media. After addition of doxycycline, the cells are plated at a density of 450-750 cells per well in 96-well half-volume black tissue culture plates (Costar) and placed in an incubator (37° C., 5% CO2) for 20 hours prior to cAMP assays.
Culture media is removed from the cells and they are washed with 50 μL/well of Ringer's Buffer (MgCl2 0.047 mg/mL, NaH2PO4 0.18 mg/mL, Na2HPO4 0.1 mg/mL, KCl 0.34 mg/mL, NaHCO3 1.26 mg/mL, D-glucose 1.8 mg/mL, NaCl 7 mg/mL; pH=7.4). The test compounds are suspended in DMSO, diluted in Ringer's Buffer containing 0.5% fatty acid free BSA plus 300 μM IBMX, and incubated on the cells for 45 minutes at 37° C. and 5% CO2. After incubation, the cells are conditioned for 10 minutes at room temp with Eu-cAMP tracer solution from a Perkin Elmer Lance HTRF Ultra cAMP assay kit (TRF0263). Then ULight™-anti-cAMP solution from the Lance HTRF kit is added and incubated on a shaker at room temp for 1 hour prior to HTRF detection in a Perkin Elmer Envision plate reader. EC50 curves are generated with a four-parameter logistic equation using GraphPad Prism 5.03.
Table 1 lists biological assay data (in vitro inhibition of cAMP) for some of the compounds shown in the examples, where larger pEC50 values represent higher activity or potency. All of the compounds shown in Table 1 were tested in accordance with a cell-based assay which measures the ability of test compounds to inhibit the constitutive cAMP activity of GPR6 receptor expressed in CHO-K1 cells (reported as pEC50). The assay is described in the specification under the heading “In vitro inhibition of cAMP (EC50).”
Background: TR-FRET usually uses a lanthanide donor and a delayed reading to cut background.
In the case of `COc1ccc(Cl)c(OC)c1C(=O)Nc1cc(C#N)ccc1N1CCC(Oc2ccc(F)cc2F)CC1` [Example 212, 3-chloro-N-(5-cyano-2-(4-(2,4-difluorophenoxy)piperidin-1-yl)phenyl)-2,6-dimethoxybenzamide], the “pEC50, in vitro inhibition of cAMP” value was <4.5.
The value for `Cn1cccc(C(=O)Nc2cc(C#N)ccc2N2CCC(C(=O)c3cc(Cl)ccc3F)CC2)c1=O` [Example 83] was 6.9; that for `Cn1cccc(C(=O)Nc2cc(C#N)ccc2N2CCC(Oc3ncc(F)cc3F)CC2)c1=O` [Example 293, N-(5-cyano-2-(4-((3,5-difluoropyridin-2-yl)oxy)piperidin-1-yl)phenyl)-1-methyl-2-oxo-1,2-dihydropyridine-3-carboxamide] was 6.6; that for `COc1ccc(CC2CCN(c3ccc(C#N)cc3NC(=O)c3cccn(C)c3=O)CC2)c(F)c1` [Example 90, N-(5-cyano-2-(4-(2-fluoro-4-methoxybenzyl)piperidin-1-yl)phenyl)-1-methyl-2-oxo-1,2-dihydropyridine-3-carboxamide] was 7.2.
The value for `Cc1nonc1C(=O)Nc1cc(C#N)ccc1N1CCC(Oc2ccc(F)cc2F)CC1` [Example 119, N-(5-cyano-2-(4-(2,4-difluorophenoxy)piperidin-1-yl)phenyl)-4-methyl-1,2,5-oxadiazole-3-carboxamide] was <5.7.
`CNC(=O)c1cc(N2CCC(Oc3ccc(F)cc3F)CC2)c(NC(=O)c2cccnc2OC)cn1` [Example 19, 4-(4-(2,4-difluorophenoxy)piperidin-1-yl)-5-(2-methoxynicotinamido)-N-methylpicolinamide]: the “pEC50, in vitro inhibition of cAMP” value was found to be 6.7.
For the molecule `COc1nccnc1C(=O)Nc1cc(C#N)ccc1N1CCC(Oc2ccc(F)cc2F)CC1` [Example 94, N-(5-cyano-2-(4-(2,4-difluorophenoxy)piperidin-1-yl)phenyl)-3-methoxypyrazine-2-carboxamide], the “pEC50, in vitro inhibition of cAMP” value is given as <5.7.
The result for `COc1ncccc1C(=O)Nc1cnc(C(F)(F)F)cc1N1CCC(Oc2ccc(F)cc2F)CC1` [Example 289] reads 6.9; that for `COc1ccc(C(=O)Nc2cc(C#N)ccc2N2CCC(Oc3ccc(F)cc3F)CC2)c(OC)n1` [Example 78, N-(5-cyano-2-(4-(2,4-difluorophenoxy)piperidin-1-yl)phenyl)-2,6-dimethoxynicotinamide], 6.9; that for `Cn1cc2ccc(NC(=O)c3ccccn3)c(N3CCC(Oc4ccc(F)cc4F)CC3)c2n1` [Example 149, N-(7-(4-(2,4-difluorophenoxy)piperidin-1-yl)-2-methyl-2H-indazol-6-yl)picolinamide], 5.8.
The value for `N#Cc1ccc(N2CCC(Oc3ccc(F)cc3F)CC2)c(NC(=O)c2cccn(C(F)F)c2=O)c1` [Example 277, N-(5-cyano-2-(4-(2,4-difluorophenoxy)piperidin-1-yl)phenyl)-1-(difluoromethyl)-2-oxo-1,2-dihydropyridine-3-carboxamide] was 6.5; that for `COc1ncccc1C(=O)Nc1cc(C(=O)N(C)C)ccc1N1CCC(Oc2ccc(F)cc2F)CC1` [Example 265] was 6.7; that for `COc1nc(C(F)(F)F)ccc1C(=O)Nc1cc(C#N)ccc1N1CCC(Oc2ccc(F)cc2F)CC1` [Example 213] was 6.8.
The value for `COc1ncncc1C(=O)Nc1cc(C#N)ccc1N1CCC(Oc2ccc(F)cc2F)CC1` [Example 37, N-(5-cyano-2-(4-(2,4-difluorophenoxy)piperidin-1-yl)phenyl)-4-methoxypyrimidine-5-carboxamide] was 7.1; that for `N#Cc1ccc(N2CCC(Oc3ccc(F)cc3F)CC2)c(NC(=O)c2cnsn2)c1` [Example 134, N-(5-cyano-2-(4-(2,4-difluorophenoxy)piperidin-1-yl)phenyl)-1,2,5-thiadiazole-3-carboxamide] was 5.8.
Regarding `N#Cc1ccc(N2CCC(Oc3ccc(F)cc3F)CC2)c(NC(=O)c2cccn(Cc3ccccn3)c2=O)c1` [Example 203, N-(5-cyano-2-(4-(2,4-difluorophenoxy)piperidin-1-yl)phenyl)-2-oxo-1-(pyridin-2-ylmethyl)-1,2-dihydropyridine-3-carboxamide], the “pEC50, in vitro inhibition of cAMP” value stood at 5.6.
The value for `Cn1ccc(C(=O)Nc2cc(C#N)ccc2N2CCC(Oc3ccc(F)cc3F)CC2)n1` [Example 42, N-(5-cyano-2-(4-(2,4-difluorophenoxy)piperidin-1-yl)phenyl)-1-methyl-1H-pyrazole-3-carboxamide] was 6.9; that for `COc1cc(C(C)(C)C)ccc1C(=O)Nc1cc(C#N)ccc1N1CCC(Oc2ccc(F)cc2F)CC1` [Example 216, 4-(tert-butyl)-N-(5-cyano-2-(4-(2,4-difluorophenoxy)piperidin-1-yl)phenyl)-2-methoxybenzamide] was 6.4.
For `Cc1csc2ncc(C(=O)Nc3cc(C#N)ccc3N3CCC(Oc4ccc(F)cc4F)CC3)c(=O)n12` [Example 218, N-(5-cyano-2-(4-(2,4-difluorophenoxy)piperidin-1-yl)phenyl)-3-methyl-5-oxo-5H-thiazolo[3,2-a]pyrimidine-6-carboxamide], the “pEC50, in vitro inhibition of cAMP” value is 6.8.
The value for `N#Cc1ccc(N2CCC(Oc3ccc(F)cc3F)CC2)c(NC(=O)c2ccsn2)c1` [Example 128, N-(5-cyano-2-(4-(2,4-difluorophenoxy)piperidin-1-yl)phenyl)isothiazole-3-carboxamide] was 6.6.
On to `Cn1cccc(C(=O)Nc2cc(S(=O)(=O)N3CCOCC3)cnc2N2CCC(Oc3ccc(F)cc3F)CC2)c1=O` [Example 279, N-(2-(4-(2,4-difluorophenoxy)piperidin-1-yl)-5-(morpholinosulfonyl)pyridin-3-yl)-1-methyl-2-oxo-1,2-dihydropyridine-3-carboxamide], for which the “pEC50, in vitro inhibition of cAMP” value stood at 7.0.
The value for `CCn1c(C)cc(C)c(C(=O)Nc2cc(C#N)ccc2N2CCC(Oc3ccc(F)cc3F)CC2)c1=O` [Example 202] was 6.3; that for `COc1ncccc1C(=O)Nc1cc(C#N)ccc1N1CCN(C(=O)c2ccc(F)cc2F)CC1` [Example 93, N-(5-cyano-2-(4-(2,4-difluorobenzoyl)piperazin-1-yl)phenyl)-2-methoxynicotinamide] was 6.3; that for `Cc1ccc2ncc(C(=O)Nc3cc(C#N)ccc3N3CCC(Oc4ccc(F)cc4F)CC3)c(=O)n2c1` [Example 201] was 6.8.
The result for `CCCCn1cccc(C(=O)Nc2cc(C#N)ccc2N2CCC(Oc3ccc(F)cc3F)CC2)c1=O` [Example 179, 1-butyl-N-(5-cyano-2-(4-(2,4-difluorophenoxy)piperidin-1-yl)phenyl)-2-oxo-1,2-dihydropyridine-3-carboxamide] reads 6.2; that for `COc1nn(C)cc1C(=O)Nc1cc(C#N)cnc1N1CCN(Cc2cc(C#N)ccc2F)CC1` [Example 151, N-(5-cyano-2-(4-(5-cyano-2-fluorobenzyl)piperazin-1-yl)pyridin-3-yl)-3-methoxy-1-methyl-1H-pyrazole-4-carboxamide], 6.3; that for `COc1ccnc(C(=O)Nc2cc(C#N)ccc2N2CCC(Oc3ccc(F)cc3F)CC2)n1` [Example 138, N-(5-cyano-2-(4-(2,4-difluorophenoxy)piperidin-1-yl)phenyl)-4-methoxypyrimidine-2-carboxamide], <4.5.
For the molecule `COc1ncccc1C(=O)Nc1cnc(C(=O)N[C@@H]2CCOC2)cc1N1CCC(Oc2ccc(F)cc2F)CC1` [Example 251, (R)-4-(4-(2,4-difluorophenoxy)piperidin-1-yl)-5-(2-methoxynicotinamido)-N-(tetrahydrofuran-3-yl)picolinamide], the “pEC50, in vitro inhibition of cAMP” value was found to be 6.8.
The value for `COc1ccc(C(F)(F)F)cc1C(=O)Nc1cc(C#N)ccc1N1CCC(Oc2ccc(F)cc2F)CC1` [Example 208, N-(5-cyano-2-(4-(2,4-difluorophenoxy)piperidin-1-yl)phenyl)-2-methoxy-5-(trifluoromethyl)benzamide] was 6.9; that for `COc1ccncc1C(=O)Nc1cc(C(=O)N(C)C)ncc1N1CCC(Oc2ccc(F)cc2F)CC1` [Example 262, 5-(4-(2,4-difluorophenoxy)piperidin-1-yl)-4-(4-methoxynicotinamido)-N,N-dimethylpicolinamide] was 7.3.
